Row | SMILES | melting point [°C]
1 | NCC(O)c1ccc(F)c(F)c1 (stereo not drawn) | 53 to 55
2 | CC1=CC(C)=NS(=O)(=O)N1 | 119 to 121
3 | O=C(O)C(Cn1ccc(C(F)(F)F)n1)NC1CC1 (stereo not drawn) | 175 to 177
4 | Nc1nc2ccccc2n1C1CCCCC1 | 206 to 208
5 | CS(=O)(=O)c1ccc(N)cn1 | 171 to 173
6 | Cc1cc(N)ccc1N1C(=O)CCC1=O | 167 to 169
7 | Cn1c(Cl)c(C=O)c2cc(C=O)ccc21 | 164 to 166
8 | Fc1ccc(C2=NOC(CCl)C2)cc1 (stereo not drawn) | 59 to 61
9 | Cc1nncn1C1CC1 | 49 to 51
10 | O=S(=O)(c1ccc2c(c1)CCCN2)N1CCCCC1 | 121 to 123
11 | N#CCNC(=O)CCl | 88 to 90
12 | Nc1ccc(-c2nc3ccccc3s2)cc1 | 149 to 151
13 | Nc1ccc(N2CCNC(=O)C2)c(Cl)c1 | 147 to 149
14 | CC(C)c1c(C(=O)O)cnn1Cc1ccccc1 | 153 to 155
15 | NC(=O)C1CCC(O)CC1 (stereo not drawn) | 204 to 206
16 | NS(=O)(=O)c1ccc2c(c1)CCCN2 | 161 to 163
17 | O=C1CC=NN1c1ccc(F)cc1 | 121 to 123
18 | Cc1csc(NC(=O)CCl)n1 | 127 to 129
19 | Clc1nc(CN2CCCCC2)nc2scc(-c3cccs3)c12 | 89 to 91
20 | Nc1cc(C(=O)O)cc(Cl)n1 | 289 to 291
21 | N#CCC1CC2=C(CCCC2=O)O1 (stereo not drawn) | 104 to 106
22 | O=C1CCS(=O)(=O)CC1 | 167 to 169
23 | COc1ccc(C)c(N)c1 | 43 to 46
24 | CC(C)c1cnc(S)n1C | 124 to 126

Row | SMILES | melting point [°C]
25 | Cc1cc(C(=O)O)c2cnn(C(C)C)c2n1 | 172 to 174
26 | Nc1ccc(-n2cncn2)c(Cl)c1 | 131 to 133
27 | NCc1nc(-c2ccsc2)no1 | 134 to 136
28 | Cn1c(=O)n(C)c2cc(S(=O)(=O)Cl)ccc21 | 176 to 178
29 | CCC(C)n1nccc1N (stereo not drawn) | 30 to 32
30 | CCC(C)(C)C1CCc2c(sc(NC(=O)CCl)c2C#N)C1 (stereo not drawn) | 100 to 102
31 | CC(C)c1cc(C(=O)O)c2cnn(C(C)C)c2n1 | 144 to 146
32 | COc1cc(C=O)ccc1OCC(F)(F)F | 66 to 68
33 | COc1ccc(CNC(N)=S)cc1OC | 191 to 193
34 | CCn1c(S)nnc1-c1cccs1 | 103 to 105
35 | CC(C)c1nn(C)c2sc(C(=O)O)cc12 | 209 to 211
36 | Nc1ccc(Sc2ccc(Cl)cc2)cc1 | 60 to 62
37 | CC1CCC(N2CC(C(=O)O)CC2=O)CC1 (stereo not drawn) | 143 to 145
38 | O=C1COc2ccc(F)cc2N1 | 204 to 206
39 | COc1cc(CC#N)cc(Br)c1OCC(F)(F)F | 116 to 118
40 | FC(F)(F)c1nnc2ccc(Cl)nn12 | 69 to 71
41 | O=C(O)c1cc(S(=O)(=O)F)cs1 | 191 to 193
42 | CC(N)c1ccc(-n2cncn2)cc1 (stereo not drawn) | 78 to 80
43 | O=C(CN1CCNCC1)N1CCCCC1 | 83 to 85
44 | Nc1ccc(-c2cn3ccsc3n2)cc1 | 199 to 201
45 | CNc1cccnc1N1CCCC1 | 105 to 107
46 | Nc1ccc2[nH]c(C(F)F)nc2c1 | 129 to 131
47 | Cc1sc(N)nc1-c1ccc(Br)cc1 | 147 to 149
48 | Oc1ccnc2c(OC(F)(F)F)cccc12 | 145 to 147

Row | SMILES | melting point [°C]
49 | [N-]=[N+]=Nc1ccnc(C(N)=O)c1 | 169 to 171
50 | Brc1cnc2ncnn2c1 | 184 to 186
51 | Oc1ccc(Sc2ccnc3cc(Cl)ccc23)cc1 | 231 to 233
52 | CC1CCN(Cc2csc(N)n2)CC1 | 145 to 147
53 | Cn1ncc2c(=O)[nH]c(Cl)nc21 | 268 to 270
54 | Nc1ccc(C(=O)N2CCOCC2)c(Cl)c1 | 205 to 207
55 | ON=Cc1ccc(N2CCOCC2)cc1 | 186 to 188
56 | CCc1cc2c(CCl)cc(=O)oc2cc1O | 216 to 218
57 | COc1ccccc1-c1cc(N)n(-c2ccc(C)cc2)n1 | 104 to 106
58 | Cc1cccn2cc(COc3ccc(F)cc3Cl)nc12 | 128 to 130
59 | CCn1nc(C)c(C(=O)O)c1C(F)(F)Cl | 111 to 113
60 | O=C1CCC(O)(c2cccc(F)c2)CC1 | 111 to 113
61 | Cc1ccc(C)c(S(=O)(=O)N2CCNCC2)c1 | 108 to 110
62 | OCc1ccncc1Cl | 118 to 120
63 | CC(C)NC(=O)NC(=O)CCl | 86 to 88
64 | CS(=O)(=O)Nc1ccc(-c2csc(N)n2)cc1 | 196 to 198
65 | Cc1ccc(S(=O)(=O)Nc2ccc(N)cc2)cc1 | 183 to 185
66 | C=CCS(N)(=O)=O | 31 to 33
67 | Nc1cc(-c2ccc(OC(F)F)cc2)no1 | 88 to 90
68 | COc1ccc(NS(=O)(=O)c2ccc(N)c(N)c2)cc1 | 163 to 165
69 | CNc1ccnc2ccncc12 | 223 to 225
70 | C[C@H](N)C(N)=O | 67 to 69
71 | Nc1ncc(-c2cccc(Cl)c2)s1 | 143 to 145

Continued, values first:

Row | melting point [°C] | SMILES
72 | 136 to 138 | C=CCN(CC(=O)O)S(=O)(=O)c1ccc(Cl)cc1
73 | 220 to 222 | Cc1ccc(-c2nn(-c3ccccc3)cc2C=CC(=O)O)cc1
74 | 173 to 175 | C#CCNC(=O)Nc1ccccc1Cl
75 | 163 to 165 | CN(C)S(=O)(=O)c1ccc(F)c(C(=O)O)c1
76 | 82 to 84 | Cc1nn(-c2ccccc2)c(N)c1-c1ccccc1
77 | 246 to 248 | COc1cc(C=C2CCc3c2nc2ccccc2c3C(=O)O)cc(OC)c1OC
78 | 159 to 161 | Nc1nnc(Cl)c2ccccc12
79 | 216 to 220 | COc1ccc(C(=O)Nc2sc3c(c2C(=O)O)CCCC3)cc1
80 | 129 to 131 | COc1ccc(NC(=O)c2ccccc2N)cn1
81 | 249 to 251 | NC(=O)c1ccc(C(=O)O)nc1
82 | 114 to 116 | N#CCS(=O)(=O)c1cc(Cl)ccc1Cl
83 | 289 to 291 | O=C(O)c1ccc(-c2cccs2)[nH]c1=O
84 | 106 to 108 | Nc1ccc(Br)c(Cl)c1[N+](=O)[O-]
85 | 158 to 160 | O=C(O)c1oc2ccccc2c1CSC1CCCCC1
86 | 231 to 233 | CNC(=O)c1c(Cl)ccc(S(=O)(=O)NC)c1Cl
87 | 157 to 159 | COc1ccc(C=C2CCCc3c2nc2ccccc2c3C(=O)O)cc1
88 | 179 to 181 | N#Cc1nnc2ccccc2c1Cl
89 | 160 to 163 | O=c1c2ccccc2nc2n1CCO2
90 | 41 to 43 | O=[N+]([O-])c1ccc(OCC(F)(F)F)nc1
91 | 73 to 75 | O=C(Nc1ccccc1[N+](=O)[O-])c1ccc2ccccc2n1
92 | 139 to 141 | Cc1ccc(-c2nc(CC(=O)O)cs2)cc1
93 | 115 to 117 | CCc1cccc2c(CC#N)c[nH]c12
94 | 262 to 264 | Cc1nc2cc(F)ccc2cc1C(=O)O
95 | 88 to 90 | O=Cc1ccc(OCc2ccccn2)cc1

Row | melting point [°C] | SMILES
96 | 115 to 119 | O=C(O)CCCNc1ccccc1[N+](=O)[O-]
97 | 249 to 251 | CNc1ccc(C(=O)O)cn1
98 | 151 to 153 | O=C(O)c1ccc(CN2CCCC2=O)cc1
99 | 104 to 106 | O=C(O)C1CCN(C(=O)CSc2nnc(-c3ccccc3)o2)CC1
100 | 162 to 164 | CC(C)NS(=O)(=O)c1cccc(C(=O)O)c1
101 | 98 to 100 | Cc1ccc(N2N=C(C(=O)O)NCC2=O)cc1
102 | 121 to 123 | O=C(O)C1CCCN1C(=O)Cc1cn2ccsc2n1 (stereo not drawn)
103 | 45 to 52 | CCOC(=O)c1cc([N+](=O)[O-])cnc1C
104 | 220 to 222 | O=C(O)Cn1nnc(-c2cccs2)n1
105 | 54 to 56 | N#Cc1ccccc1Oc1ccc(CCl)cc1
106 | 62 to 64 | Cc1cc(OCCO)ccc1N
107 | 199 to 201 | NCc1ccc(C(=O)NCC(N)=O)cc1
108 | 54 to 56 | c1ccc(NCc2cccc3ccccc23)cc1
109 | 171 to 173 | O=C(O)c1nn(-c2ccccc2)c2c1CCCCC2
110 | 69 to 71 | CCOC(=O)C(=O)c1cc(Br)ccc1OC
111 | 115 to 117 | O=C(O)c1cccc(Oc2ccc(Cl)cc2)n1
112 | 129 to 131 | CCN(CC)CCn1c(N)nc2ccccc21
113 | 259 to 261 | O=C1c2ccc([N+](=O)[O-])cc2C(=O)N1c1ccncc1
114 | 159 to 161 | NNC(=S)Nc1ccccc1F
115 | 43 to 47 | CCCCCCCOc1ccc(C=O)cc1OCC
116 | 284 to 286 | Nc1cc(=O)[nH]c(=O)n1Cc1ccccc1
117 | 73 to 75 | COc1ccc(CCC(=O)O)c(OC)c1OC
118 | 112 to 114 | O=C(O)CNC(=O)CCC1CCCC1
119 | 155 to 157 | O=C(O)c1occc1Br

Row | melting point [°C] | SMILES
120 | 160 to 162 | Oc1cn(-c2ccccc2)nn1
121 | 119 to 121 | COc1ccc2c(-c3ccccc3)cc(NN)nc2c1
122 | 106 to 108 | C=CC(=O)Nc1cccc(Cl)c1
123 | 133 to 135 | O=C(O)CCNC(=O)c1ccc(F)cc1
124 | 189 to 191 | CC(=O)Nc1ccc(Br)c(C(=O)O)n1
125 | 160 to 162 | O=C(O)CNC1=NS(=O)(=O)c2ccccc21
126 | 180 to 182 | Cn1c(=O)oc(=O)c2cc([N+](=O)[O-])ccc21
127 | 254 to 256 | COC(=O)c1cc([N+](=O)[O-])c[nH]c1=O
128 | 154 to 156 | CNS(=O)(=O)c1ccc(S(N)(=O)=O)cc1
129 | 115 to 117 | O=C(O)CSc1nc(-c2ccccc2)no1
130 | 218 to 220 | CSc1cc(C(=O)O)ccn1
131 | 75 to 77 | COC(=O)c1ccc2ccccc2c1O
132 | 114 to 116 | O=C(Nc1ncccc1O)c1ccc(C2SCCS2)cc1
133 | 201 to 203 | COc1ccc(C(=O)O)cc1OCc1ccncc1
134 | 132 to 134 | Cc1cc(NC(C)C)ccc1C(N)=O
135 | 159 to 161 | O=C(O)c1c[nH]c2cccc(Br)c12
136 | 204 to 206 | Cn1cc(C(=O)O)c(-c2ccccc2)n1
137 | 129 to 131 | NNC(=O)Cc1ccc(F)cc1
138 | 83 to 85 | Nc1ccccc1-c1ccncc1
139 | 129 to 131 | N#Cc1cnc2ccc(Cl)cc2c1Cl
140 | 159 to 161 | Cc1nc(-c2cccs2)c(CC(=O)O)s1
141 | 171 to 173 | O=C(O)c1ccc(OC2CCCC2)cc1
142 | 179 to 181 | O=C(CCl)Nc1cc(-n2cnnn2)ccc1Cl
143 | 286 to 288 | NC(=O)c1ccc(C(=O)O)o1

From a melting point compilation (Tetko et al.)
